Data from patent US20250171498A1, “ANTIBIOTIC COMPOUNDS, FORMULATIONS AND METHODS OF USE” (UNIVERSITEIT LEIDEN, priority 2022, published 2025).
≈ marks a conversion by molar mass, not a printed value. Like-named read-outs stand apart in the source and are kept apart here. Where a SMILES comes first, the peptide text is derived from it. Bridges are numbered along the chain shown (N, C = ends). [ ]: non-standard residue; d: D form. The star is where a group is joined. S(2-cyclohexylethyl) = C1CCC(CCS*)CC1; S(3-Cl-benzyl) = Clc1cccc(CS*)c1; S(3-Methylbutyl) = CC(C)CCS*; dDab = NCC[C@@H](N)C(=O)O; dDap = NC[C@@H](N)C(=O)O; Dab = NCC[C@H](N)C(=O)O; Dap = NC[C@H](N)C(=O)O

What was measured:
Assay type in all cases: cell-based
[1] = test system: renal Proximal Tubular Epithelial Cells (PTECs); test: Toxicity on renal Proximal Tubular Epithelial Cells
Protocol: (§1) Compounds were prepared according to scheme 2, 3, 4, 6, 7, or 8 above, preparing different sets of compounds with different substitution patterns. All polymyxin analogues prepared were tested for their anti-bacterial activity on relevant Gram-negative strains (Table B). Polymyxin B and PMBN were taken along as references. In addition, the toxicity on renal Proximal Tubular Epithelial Cells (PTECs) was evaluated.
(§2) 3rd Generation compounds were also subjected to testing for their anti-bacterial activity on relevant Gram-negative strains (Table C). Polymyxin B and PMBN were taken along as references. In addition, the toxicity on renal Proximal Tubular Epithelial Cells (PTECs) was evaluated, see Table C.

[2] = test system: K. Pneumoniae (ATCC 13883)
Protocol: as §1, §2

[3] = test system: P. Aeruginosa (ATCC 27853)
Protocol: as §1, §2

E. Coli (ATCC 25922) = test system: E. Coli (ATCC 25922)
Protocol: as §1, §2

A. Baumanni (ATCC 19606) = test system: A. Baumanni (ATCC 19606)
Protocol: as §1, §2

Row | Molecule | PTEC Toxicity (relative to polymyxin B) [1] | MIC K. Pneumoniae (ATCC 13883) ([2]; ATCC 13883) | MIC P. Aeruginosa (ATCC 27853) ([3]; ATCC 27853) | MIC E. Coli (ATCC 25922) (E. Coli (ATCC 25922); ATCC 25922) | MIC A. Baumanni (ATCC 19606) (A. Baumanni (ATCC 19606); ATCC 19606) | PTEC Toxicity (relative to polymyxin B) ([1]; relative value, polymyxin B = 1) | MIC K. Pneumoniae (ATCC 13883) ([2]; strain ATCC 13883) | MIC P. Aeruginosa (ATCC 27853) ([3]; strain ATCC 27853) | MIC E. Coli (ATCC 25922) (E. Coli (ATCC 25922); strain ATCC 25922) | MIC A. Baumanni (ATCC 19606) (A. Baumanni (ATCC 19606); strain ATCC 19606)
1 | CC(C)C[C@@H]1NC(=O)[C@@H](Cc2ccccc2)NC(=O)[C@H](CCN)NC(=O)[C@@H](NC(=O)[C@@H](CN)NC(=O)[C@@H](NC(=O)[C@H](N)CSSCCC2CCCCC2)[C@@H](C)O)CCNC(=O)[C@H]([C@@H](C)O)NC(=O)[C@H](CCN)NC(=O)[C@H](CCN)NC1=O (H-[dC](S(2-cyclohexylethyl))T[dDap][Dab][Dab][dF]L[Dab][Dab]T; lactam 4-C) | 5.4 | 1 µg/mL (≈ 0.837 µM) | 2 µg/mL (≈ 1.67 µM) | 2 µg/mL (≈ 1.67 µM) | 0.5 µg/mL (≈ 0.419 µM) | – | – | – | – | –
2 | CC(C)C[C@@H]1NC(=O)[C@@H](Cc2ccccc2)NC(=O)[C@H](CCN)NC(=O)[C@@H](NC(=O)[C@@H](CO)NC(=O)[C@@H](NC(=O)[C@H](N)CSSCCC2CCCCC2)[C@@H](C)O)CCNC(=O)[C@H]([C@@H](C)O)NC(=O)[C@H](CCN)NC(=O)[C@H](CCN)NC1=O (H-[dC](S(2-cyclohexylethyl))T[dS][Dab][Dab][dF]L[Dab][Dab]T; lactam 4-C) | 3.3 | 1 µg/mL (≈ 0.836 µM) | 4 µg/mL (≈ 3.35 µM) | 2 µg/mL (≈ 1.67 µM) | 0.25 µg/mL (≈ 0.209 µM) | – | – | – | – | –
3 | CC(C)C[C@@H]1NC(=O)[C@@H](Cc2ccccc2)NC(=O)[C@H](CCN)NC(=O)[C@@H](NC(=O)CNC(=O)[C@@H](NC(=O)[C@H](N)CSSCc2cccc(Cl)c2)[C@@H](C)O)CCNC(=O)[C@H]([C@@H](C)O)NC(=O)[C@H](CCN)NC(=O)[C@H](CCN)NC1=O (H-[dC](S(3-Cl-benzyl))TG[Dab][Dab][dF]L[Dab][Dab]T; lactam 4-C) | 7.4 | 1 µg/mL (≈ 0.848 µM) | 4 µg/mL (≈ 3.39 µM) | 2 µg/mL (≈ 1.7 µM) | 1 µg/mL (≈ 0.848 µM) | – | – | – | – | –
4 | CC(C)C[C@@H]1NC(=O)[C@@H](Cc2ccccc2)NC(=O)[C@H](CCN)NC(=O)[C@@H](NC(=O)[C@H](CN)NC(=O)[C@@H](NC(=O)[C@H](N)CSSCc2cccc(Cl)c2)[C@@H](C)O)CCNC(=O)[C@H]([C@@H](C)O)NC(=O)[C@H](CCN)NC(=O)[C@H](CCN)NC1=O (H-[dC](S(3-Cl-benzyl))T[Dap][Dab][Dab][dF]L[Dab][Dab]T; lactam 4-C) | 4.8 | 0.5 µg/mL (≈ 0.414 µM) | 4 µg/mL (≈ 3.31 µM) | 2 µg/mL (≈ 1.65 µM) | 0.5 µg/mL (≈ 0.414 µM) | – | – | – | – | –
5 | CC(C)C[C@@H]1NC(=O)[C@@H](Cc2ccccc2)NC(=O)[C@H](CCN)NC(=O)[C@@H](NC(=O)[C@@H](CCN)NC(=O)[C@@H](NC(=O)[C@H](N)CSSCc2cccc(Cl)c2)[C@@H](C)O)CCNC(=O)[C@H]([C@@H](C)O)NC(=O)[C@H](CCN)NC(=O)[C@H](CCN)NC1=O (H-[dC](S(3-Cl-benzyl))T[dDab][Dab][Dab][dF]L[Dab][Dab]T; lactam 4-C) | 7.0 | 1 µg/mL (≈ 0.818 µM) | 2 µg/mL (≈ 1.64 µM) | 2 µg/mL (≈ 1.64 µM) | 0.5 µg/mL (≈ 0.409 µM) | – | – | – | – | –
6 | CC(C)C[C@@H]1NC(=O)[C@@H](Cc2ccccc2)NC(=O)[C@H](CCN)NC(=O)[C@@H](NC(=O)[C@@H](CN)NC(=O)[C@@H](NC(=O)[C@H](N)CSSCc2cccc(Cl)c2)[C@@H](C)O)CCNC(=O)[C@H]([C@@H](C)O)NC(=O)[C@H](CCN)NC(=O)[C@H](CCN)NC1=O (H-[dC](S(3-Cl-benzyl))T[dDap][Dab][Dab][dF]L[Dab][Dab]T; lactam 4-C) | 5.7 | 0.5 µg/mL (≈ 0.414 µM) | 1 µg/mL (≈ 0.827 µM) | 2 µg/mL (≈ 1.65 µM) | 0.5 µg/mL (≈ 0.414 µM) | – | – | – | – | –
7 | CC(C)C[C@@H]1NC(=O)[C@@H](Cc2ccccc2)NC(=O)[C@H](CCN)NC(=O)[C@@H](NC(=O)[C@@H](CO)NC(=O)[C@@H](NC(=O)[C@H](N)CSSCc2cccc(Cl)c2)[C@@H](C)O)CCNC(=O)[C@H]([C@@H](C)O)NC(=O)[C@H](CCN)NC(=O)[C@H](CCN)NC1=O (H-[dC](S(3-Cl-benzyl))T[dS][Dab][Dab][dF]L[Dab][Dab]T; lactam 4-C) | 6.7 | 1 µg/mL (≈ 0.827 µM) | 4 µg/mL (≈ 3.31 µM) | 2 µg/mL (≈ 1.65 µM) | 0.5 µg/mL (≈ 0.413 µM) | – | – | – | – | –
8 | CC(C)CCSSC[C@@H](N)C(=O)N[C@H](C(=O)NCC(=O)N[C@H]1CCNC(=O)[C@H]([C@@H](C)O)NC(=O)[C@H](CCN)NC(=O)[C@H](CCN)NC(=O)[C@H](CC(C)C)NC(=O)[C@@H](Cc2ccccc2)NC(=O)[C@H](CCN)NC1=O)[C@@H](C)O (H-[dC](S(3-Methylbutyl))TG[Dab][Dab][dF]L[Dab][Dab]T; lactam 4-C) | 26.8 | 0.5 µg/mL (≈ 0.444 µM) | 4 µg/mL (≈ 3.55 µM) | 2 µg/mL (≈ 1.78 µM) | 0.5 µg/mL (≈ 0.444 µM) | – | – | – | – | –
9 | CC(C)CCSSC[C@@H](N)C(=O)N[C@H](C(=O)N[C@@H](CN)C(=O)N[C@H]1CCNC(=O)[C@H]([C@@H](C)O)NC(=O)[C@H](CCN)NC(=O)[C@H](CCN)NC(=O)[C@H](CC(C)C)NC(=O)[C@@H](Cc2ccccc2)NC(=O)[C@H](CCN)NC1=O)[C@@H](C)O (H-[dC](S(3-Methylbutyl))T[Dap][Dab][Dab][dF]L[Dab][Dab]T; lactam 4-C) | 20.1 | 0.25 µg/mL (≈ 0.217 µM) | 1 µg/mL (≈ 0.866 µM) | 1 µg/mL (≈ 0.866 µM) | 0.25 µg/mL (≈ 0.217 µM) | – | – | – | – | –
10 | CC(C)CCSSC[C@@H](N)C(=O)N[C@H](C(=O)N[C@H](CCN)C(=O)N[C@H]1CCNC(=O)[C@H]([C@@H](C)O)NC(=O)[C@H](CCN)NC(=O)[C@H](CCN)NC(=O)[C@H](CC(C)C)NC(=O)[C@@H](Cc2ccccc2)NC(=O)[C@H](CCN)NC1=O)[C@@H](C)O (H-[dC](S(3-Methylbutyl))T[dDab][Dab][Dab][dF]L[Dab][Dab]T; lactam 4-C) | 7.1 | 0.5 µg/mL (≈ 0.428 µM) | 1 µg/mL (≈ 0.856 µM) | 2 µg/mL (≈ 1.71 µM) | 0.25 µg/mL (≈ 0.214 µM) | – | – | – | – | –
11 | CC(C)CCSSC[C@@H](N)C(=O)N[C@H](C(=O)N[C@H](CN)C(=O)N[C@H]1CCNC(=O)[C@H]([C@@H](C)O)NC(=O)[C@H](CCN)NC(=O)[C@H](CCN)NC(=O)[C@H](CC(C)C)NC(=O)[C@@H](Cc2ccccc2)NC(=O)[C@H](CCN)NC1=O)[C@@H](C)O (H-[dC](S(3-Methylbutyl))T[dDap][Dab][Dab][dF]L[Dab][Dab]T; lactam 4-C) | 9.7 | 0.5 µg/mL (≈ 0.433 µM) | 1 µg/mL (≈ 0.866 µM) | 2 µg/mL (≈ 1.73 µM) | 0.25 µg/mL (≈ 0.217 µM) | – | – | – | – | –
12 | CC(C)CCSSC[C@@H](N)C(=O)N[C@H](C(=O)N[C@H](CO)C(=O)N[C@H]1CCNC(=O)[C@H]([C@@H](C)O)NC(=O)[C@H](CCN)NC(=O)[C@H](CCN)NC(=O)[C@H](CC(C)C)NC(=O)[C@@H](Cc2ccccc2)NC(=O)[C@H](CCN)NC1=O)[C@@H](C)O (H-[dC](S(3-Methylbutyl))T[dS][Dab][Dab][dF]L[Dab][Dab]T; lactam 4-C) | 21.2 | 0.5 µg/mL (≈ 0.433 µM) | 4 µg/mL (≈ 3.46 µM) | 2 µg/mL (≈ 1.73 µM) | 0.25 µg/mL (≈ 0.216 µM) | – | – | – | – | –
13 | CC(C)CCSSC[C@@H](N)C(=O)N[C@H](C(=O)N[C@@H](CCN)C(=O)N[C@H]1CCNC(=O)[C@H]([C@@H](C)O)NC(=O)[C@H](CCN)NC(=O)[C@H](CCN)NC(=O)[C@H](CC(C)C)NC(=O)[C@@H](Cc2ccccc2)NC(=O)[C@H](CCN)NC1=O)[C@@H](C)O [drawing 95] (H-[dC](S(3-Methylbutyl))T[Dab][Dab][Dab][dF]L[Dab][Dab]T; lactam 4-C) | 4.7 | 0.5 µg/mL (≈ 0.428 µM) | 1 µg/mL (≈ 0.856 µM) | 1 µg/mL (≈ 0.856 µM) | 1 µg/mL (≈ 0.856 µM) | – | – | – | – | –
14 | CC(C)CCSSC[C@@H](N)C(=O)N[C@H](C(=O)N[C@@H](CCN)C(=O)N[C@H]1CCNC(=O)[C@H]([C@@H](C)O)NC(=O)[C@H](CCN)NC(=O)[C@H](CCN)NC(=O)[C@H](CC(C)C)NC(=O)[C@@H](Cc2ccccc2)NC(=O)[C@H](CCN)NC1=O)[C@@H](C)O [drawing 140] (H-[dC](S(3-Methylbutyl))T[Dab][Dab][Dab][dF]L[Dab][Dab]T; lactam 4-C) | 9.8 | 0.5 µg/mL (≈ 0.428 µM) | 1 µg/mL (≈ 0.856 µM) | 1 µg/mL (≈ 0.856 µM) | 0.5 µg/mL (≈ 0.428 µM) | – | – | – | – | –
15 | Polymyxin B [reference compound] | – | – | – | – | – | 1 | 0.25 µg/mL | 1 µg/mL | 1 µg/mL | 0.25 µg/mL
